The record followed here is US10093675B2, “6,8-disubstituted-9-(heterocyclyl)purines, compositions containing these derivatives and their use in cosmetic and medicinal applications” (USTAV EXPERIMENTALNI BOTANIKY AV CR, V.V.I., priority 2014, dated 2018).

Assay [1] concerns excised wheat leaf tips (Triticum aestivum cv. Hereward). Nature of the assay: Senescence inhibition on winter wheat leaf segments (retention of chlorophyll). It is filed as in vivo. Particulars: 10^−4 mol/L; 96 hours in the dark; activity of kinetin set at 100%. In outline:
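First-leaf tips from 7-day-old wheat seedlings stood with their bases in test solution for 96 h in the dark at 25° C. Chlorophyll was then extracted in hot 80% ethanol and read at 665 nm. Activity at each compound's best concentration is relative to 10^−4 M kinetin (100%), as means of five replicates.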

Assay [2] deals with human diploid fibroblasts (HDF cells; HDF25, HDF45, HDF80). Nature of the assay: Inhibition of human cell aging: senescent cells by beta-galactosidase staining. The assay is classed as cell-based. Particulars: for SENESCENT CELLS (%) HDF25: human diploid fibroblasts passage 25, beta-galactosidase staining; for SENESCENT CELLS (%) HDF45: human diploid fibroblasts passage 45, beta-galactosidase staining; for SENESCENT CELLS (%) HDF80: human diploid fibroblasts passage 80, beta-galactosidase staining. In outline:
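Cells of passages 25, 45 and 80 fixed 5 min at room temperature in 2% formaldehyde/0.2% glutaraldehyde in PBS, then incubated at 37° C with beta-galactosidase substrate. Senescent cells identified by blue staining.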

In assay [3] the test system is detached leaves of Triticum aestivum cv. Hereward. Nature of the assay: Membrane lipid peroxidation (MDA, TBA method) in detached wheat leaves during dark senescence. It is filed as in vivo. Particulars: four days in the dark, Control 18.9 (±2.2). Summed up: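 Leaf tips from 7-day wheat seedlings were kept with compound or kinetin for four days in the dark. 100 mg tissue was extracted in 80% methanol and heated 30 min at 95 °C with 0.5% TBA/0.1% TCA. MDA came from A532 minus A600, using 155 mM^−1cm^−1.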

Assay [4] is described as follows: Radical scavenging activity determined by ORAC (Oxygen Radical Absorbance Capacity). The assay is classed as biochemical. Particulars: Mean ± SD (n = 3); net area under the curve relative to trolox, equimolar basis. The protocol:
The ability of compounds to scavenge free radicals in vitro was determined by Oxygen Radical Absorbance Capacity (ORAC) method. Fluorescein (100 μL, […]) and 25 μL of compound solution were added into each working well in a 96-well microplate preincubated at 37° C. Thereafter, 25 μL of 250 mM AAPH was quickly added, microplate was shaken for 5 s and the fluorescence (Ex. 485 nm, Em. 510 nm) was read every 3 min over 90 min by using microplate reader Infinite 200 (TECAN, Switzerland). The net area under the curve was used to express antioxidant activity relative to trolox which was used as a standard.

For the compound `Fc1ccc(CNc2ncnc3c2nc(Br)n3C2CCCCO2)cc1F` (stereo not shown) [Compound 27], the “Activity (%) (s.d.), retention of chlorophyll” value (from here on “Activity (%) (s.d.), retention”) in assay [1] is recorded as 124 (±4) %. In assay [2], the “SENESCENT CELLS (%) HDF25” value is recorded as 2%, the “SENESCENT CELLS (%) HDF45” value is reported as 4% and the “SENESCENT CELLS (%) HDF80” value was determined as 21%.

As for `CSc1nc2c(NCc3ccco3)ncnc2n1C1CCCCO1` (stereo not shown) [Compound 145, 6-Furfurylamino-8-methylsulfanyl-9-(tetrahydropyran-2-yl)-9H-purine], in assay [3], the “MDA (nmol/g FW)” value is given as 9.6 (±0.8) nmol/g FW. In addition, the “ORAC (compound/trolox ratio)” value in assay [4] worked out at 1.3 ± 0.1.

Take `C/C(=C\CNc1ncnc2c1nc(Br)n2C1CCCCO1)CO` (stereo not shown) [Compound 24, (E)-8-Bromo-6-(4-hydroxy-3-methylbut-2-en-1-ylamino)-9-(tetrahydropyran-2-yl)-9H-purine]: the “Activity (%) (s.d.), retention” value in assay [1] is 123 (±6) %. The “MDA (nmol/g FW)” value in assay [3] is given as 11.4 (±0.9) nmol/g FW. Moreover, in assay [2], the “SENESCENT CELLS (%) HDF25” value was found to be 3%, the “SENESCENT CELLS (%) HDF45” value is listed as 5% and the “SENESCENT CELLS (%) HDF80” value is listed as 21%.

On to `Fc1cccc(CNc2ncnc3c2nc(Br)n3C2CCCCO2)c1` (stereo not shown) [Compound 26], for which, in assay [1], the “Activity (%) (s.d.), retention” value is 117 (±5) %. Besides, in assay [2], the “SENESCENT CELLS (%) HDF25” value turned out to be 2%, the “SENESCENT CELLS (%) HDF45” value is recorded as 5% and the “SENESCENT CELLS (%) HDF80” value is given as 19%.

Consider `COc1cccc(CNc2ncnc3c2nc(Cl)n3C2CCCO2)c1` (stereo not shown) [Compound 69], for which the “Activity (%) (s.d.), retention” value in assay [1] is reported as 115 (±4) %. Besides, in assay [2], the “SENESCENT CELLS (%) HDF25” value came out at 3%, the “SENESCENT CELLS (%) HDF45” value was 4% and the “SENESCENT CELLS (%) HDF80” value worked out at 14%.

Consider `COc1nc2c(NCc3ccco3)ncnc2n1C1CCCCO1` (stereo not shown) [Compound 124, 6-Furfurylamino-8-methoxy-9-(tetrahydropyran-2-yl)-9H-purine], for which the “MDA (nmol/g FW)” value in assay [3] is 10.3 (±0.7) nmol/g FW. Besides, the “ORAC (compound/trolox ratio)” value in assay [4] is recorded as 30.1 ± 3.1.

As to `C/C(=C\CNc1ncnc2c1nc(Cl)n2C1CCCO1)CO` (stereo not shown) [Compound 64], in assay [1], the “Activity (%) (s.d.), retention” value is recorded as 123 (±4) %. Further, in assay [2], the “SENESCENT CELLS (%) HDF25” value is listed as 3%, the “SENESCENT CELLS (%) HDF45” value worked out at 4% and the “SENESCENT CELLS (%) HDF80” value is reported as 8%.
